Data as given in PMC11180795 (Frontiers in Pharmacology, 2024).

Key:
Type in all cases: cell-based, Murine
[1] = system: TNF-α; assay: Th1/Th2 cytokine measurement (Cytometric Bead Array) in LPS-stimulated Raw 264.7 cells, TNF-α; details: compound at 20 µM; for effect on TNF-α production (in words): vs stimulated and untreated control
Description: (§1) Raw 264.7 cells were seeded at 2 × 10^5 cells/mL in a 48-well microplate and allowed to adhere for 24 h, then treated with LPS 0.1 μg/mL and with compounds (1), (5) and (6) at 20 µM. Untreated cells and indomethacin (10 µM) were used as controls. After 24 h of incubation, the supernatant was collected and the amount of pro-inflammatory Th1 cytokines (IFN-γ, TNF-α, and IL-2) and anti-inflammatory Th2 cytokines (IL-4, IL-6, and IL-10) released measured. The experiment was performed according to the manufacturer’s instructions using BD™ Cytometric Bead Array (CBA) […] Th1/Th2 Cytokine Kit (BD-Biosciences), and data were acquired on a BD LSR Fortessa™ cell analyzer flow cytometer.

[2] = system: IL-4; assay: Th1/Th2 cytokine measurement (Cytometric Bead Array) in LPS-stimulated Raw 264.7 cells, IL-4; details: compound at 20 µM, LPS 0.1 μg/mL, 24 h; stimulated untreated control 1.01 pg/mL
Description: as §1

[3] = system: NO production in LPS-activated RAW 264.7 macrophages; assay: Inhibition of nitric oxide (NO) production in LPS-activated RAW 264.7 macrophages (Griess reagent); details: for amount of NO produced: compound at 25 µM, LPS 1 μg/mL, 24 h, untreated and stimulated control 6.08 µM
Description: Murine macrophage RAW 264.7 cell line obtained from the American Type Culture Collection (Rockville, MD, United States) was maintained in DMEM supplemented with 10% fetal calf serum (FCS) and 1% penicillin/streptomycin/fungizone (PSF) under standard cell culture conditions at 37°C and 5% CO2 in a humidified environment. The RAW 264.7 macrophage cells were seeded in 96 well-microtitre plates (2 × 10^5 cells/mL). They were activated by incubation in a medium containing 1 μg/mL LPS alone (control) or lipopolysaccharide, and compounds at concentration of 3.12 µM, 6.25 µM, 12.5 µM and 25 µM dissolved in DMSO. […] After 24h, the amount of nitric oxide released from macrophages was determined using the Griess reagent as previously described ([Dzoyem and Eloff, 2015]).

[4] = biological target: T1, COX-2 (Mus musculus, UniProt Q05769); assay: Fluorometric COX activity assay in lysate of LPS-treated Raw 264.7 cells, COX-2; details: compound at 20 µM, LPS 0.1 μg/mL, 24 h; untreated control 99.85 µU/mg
T1 construct: The cell lysate was centrifuged at 12000 x g for 3 min and the supernatant was collected for COX activity assay; endogenous in cells
T1 sequence (Q05769 18-604): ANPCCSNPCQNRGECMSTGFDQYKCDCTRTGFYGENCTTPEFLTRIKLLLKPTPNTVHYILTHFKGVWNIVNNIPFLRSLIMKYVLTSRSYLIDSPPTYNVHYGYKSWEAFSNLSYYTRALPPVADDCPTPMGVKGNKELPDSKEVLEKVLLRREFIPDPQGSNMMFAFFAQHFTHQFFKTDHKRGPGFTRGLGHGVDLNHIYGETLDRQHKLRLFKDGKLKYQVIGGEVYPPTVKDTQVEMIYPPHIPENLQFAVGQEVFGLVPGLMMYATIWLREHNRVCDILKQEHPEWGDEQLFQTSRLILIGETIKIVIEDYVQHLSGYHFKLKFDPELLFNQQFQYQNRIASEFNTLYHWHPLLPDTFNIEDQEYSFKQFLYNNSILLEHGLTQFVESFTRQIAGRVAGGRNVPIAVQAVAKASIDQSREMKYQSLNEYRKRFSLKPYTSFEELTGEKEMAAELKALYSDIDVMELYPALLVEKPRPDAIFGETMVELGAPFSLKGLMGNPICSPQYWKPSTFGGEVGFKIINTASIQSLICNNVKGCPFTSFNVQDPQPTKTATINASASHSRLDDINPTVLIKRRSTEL
Description: The fluorometric cyclooxygenase activity assay kit (Biovision) was used to evaluate the activity of COX-1 and COX-2 enzymes. Raw 264.7 cells were seeded at 2 × 10^5 cells/mL in a 48-well microplate, and allowed to adhere for 24 h, then treated with LPS 0.1 μg/mL and compounds (1), (5) and (6) at 20 µM against Raw 264.7 cells. After 24 h the cyclooxygenase enzyme (COX-1 and COX-2) activity assay was performed. Cells were detached with TNE buffer (Tris 40 mM, NaCl 150 mM, EDTA 1 mM) and washed with PBS (1x), then re-suspended in 1 mL PBS (1x), transferred into 1.5 mL tube, and centrifuged at 500 x g for 3 min. The pellet was then re-suspended in 0.5 mL of lysis buffer with a protease inhibitor cocktail, vortexed, and incubated at 4°C for 5 min. The cell lysate was centrifuged at 12000 x g for 3 min and the supernatant was collected for COX activity assay. The COX activity was assessed using the fluorometric cyclooxygenase activity assay kit (Biovision) following the manufacturer’s instructions. The assay includes COX-1 and COX-2 specific inhibitors to differentiate the activity of COX-1 and COX-2 as well as other peroxidases. Indomethacin (10 µM) was used as a standard drug and appropriate controls were also included.

[5] = system: IFN-γ; assay: Th1/Th2 cytokine measurement (Cytometric Bead Array) in LPS-stimulated Raw 264.7 cells, IFN-γ; details: compound at 20 µM; for effect on IFN-γ production (in words): vs stimulated and untreated control
Description: as §1

[6] = Cytotoxicity MTT assay on RAW 264.7 cells; details: mouse, RAW 264.7 macrophage cells, 48 h incubation, read-out: IC50, cytotoxic effect on RAW264.7 cells
Description: Murine macrophage RAW 264.7 cell line obtained from the American Type Culture Collection (Rockville, MD, United States) was maintained in DMEM supplemented with 10% fetal calf serum (FCS) and 1% penicillin/streptomycin/fungizone (PSF) under standard cell culture conditions at 37°C and 5% CO2 in a humidified environment.
The cytotoxic effect of compounds on RAW 264.7 cells was assessed using the 3-(4, 5-dimethylthiazol-2-yl)-2, 5-diphenyl tetrazolium bromide (MTT) assay as established by Mosmann ([Mosmann, 1983]) with slight modifications. Briefly, cells were seeded at a density of 1 × 10^5 cells/mL (100 µL) in 96-well microtitre plates and incubated at 37°C and 5% CO2 in a humidified environment. After 24 h incubation, 100 µL of compounds (at concentration ranged from to 250 μM–1.95 µM) were added to the wells containing cells and further incubated for 48 h in a CO2 incubator. A suitable control (untreated cells) was included and doxorubicin was used as a positive reference. Thereafter, the medium in each well was aspirated from the cells, which were then washed with PBS, and finally fresh medium (200 µL) was added to each well. Then, 30 µL of MTT (5 mg/mL in PBS) was added to each well and the plates were incubated at 37°C for 4 h. The medium was aspirated from the wells and DMSO was added to solubilize the formed formazan crystals. The absorbance was read at 570 nm (SpectraMax 190, Molecular devices). The percentage of cell inhibition was calculated with reference to the control (untreated cells taken as 100% viability). Then, the IC50 values of plant compounds showing more than 50% cell growth inhibition were calculated by plotting the percentage inhibition against the concentration.

| COX-2 activity [4] [µU/mg] | Compound | effect on TNF-α production (in words) [1] | IL-4 level [2] [pg/mL] | amount of NO produced [3] [µM] | effect on IFN-γ production (in words) [5] | IC50 at 48 h [6] [µM] | TNF-α level ([1]; LPS 0.1 μg/mL, 24 h, stimulated untreated control 4356.86 pg/mL) [pg/mL] | inhibitory effect on NO production at the highest concentration (in words) ([3]; 25 µM, LPS-stimulated RAW 264.7) | IFN-γ level ([5]; LPS 0.1 μg/mL, 24 h, stimulated untreated control 0.84 pg/mL) [pg/mL] |
| --- | --- | --- | --- | --- | --- | --- | --- | --- | --- |
| 43.84 | CC(C)=CCC/C(C)=C/C[C@]12C[C@@H](CC=C(C)C)C(C)(C)[C@](CC=C(C)C)(C(=O)C(C(=O)c3ccc(O)c(O)c3)=C1O)C2=O [Compound 6, Guttiferone M] | moderate decrease | 0.94 | 0.54 | moderate decrease | 61.2 |  |  |  |
| 59.33 | CC(C)=CCc1c2c(c3oc4c(O)cccc4c(=O)c3c1O)C=CC(C)(C)O2 [Compound 1, Ananixanthone] |  | 1.23 |  |  | > 100 | 3854.61 | remarkable inhibitory effect | 0.43 |
| 88.10 | CC(C)=CCC/C(C)=C/C[C@]12C[C@@H](CC=C(C)C)C(C)(C)[C@](C/C=C(\C)CCC=C(C)C)(C(=O)C(C(=O)c3ccc(O)c(O)c3)=C1O)C2=O [Compound 5, Guttiferone O] | significantly reduces | 2.25 | 0.3 | significantly reduces | 64.5 |  |  |  |
